According to patent publication US20070232595A1, “Method for accelerating cutaneous barrier recovery” (Shiseido Company, Ltd., priority 2006, published 2007):

Assays:
hairless mice [1] = test: Skin barrier recovery (TEWL) after tape stripping with topical application; assay type: in vivo, mouse
Description: Permeability barrier function was evaluated by measurement of transepidermal water loss (TEWL) with an electric water analyzer, as described previously(Denda et al, 1998). For barrier recovery experiments, the flank skin on both sides was subjected to repeated tape stripping until the TEWL reached 7-10 mg per cm^2 per h, as described previously(Denda et al, 1998). As for nNOS-deficient mice and wild-type, the TEWL of the ears was measured over the same sites at 1, 3 and 6 hours after tape stripping. This is because the hair shaving may induce barrier disruption. Therefore, the ears that are hairless parts were selected for TEWL measurements. […] […] The areas were covered with plastic membranes for 15 min and then the membranes were removed. Two points on one flank were measured and 4-8 mice were used to evaluate the effect of each treatment. We always disrupted the barrier between 7:00 AM and 8:00 AM and carried out the measurements of the barrier repair thereafter to avoid the influence of circadian rhythm on the repair rate(Denda and Tsuchiya, 2000). TEWL was measured over the same sites at 1, 3 and 6 hours after barrier disruption. The barrier recovery results are expressed as percent recovery, because of variations from day to day in the extent of barrier disruption. In each animal, the percentage recovery was calculated according to the following formula:

skin of hairless mice = test: NO release from skin organ culture after tape stripping; set-up: species or system mouse; settings: pre-incubation with inhibitor 100 μM; skin organ culture in PBS, 30 min at 37° C.
Source text: Four male hairless mice (7-10 wk old) were killed by cervical dislocation under anesthesia and skin samples were taken immediately from both flanks. Subcutaneous fat was removed with a scalpel and the skin samples that contained epidermis and dermis, were cut into squares (1.5×1.5 cm^2). […] of skin from the two flanks of each animal were placed, epidermis side upwards, in separate 35-mm culture dishes kept in an ice/water bath, and one of them was tape-stripped four times. The other piece of skin was not treated. One milliliter of phosphate-buffered saline (PBS) was added to both dishes, which were incubated for 30 min at 37° C. After the incubation, 50 μL aliquots of the PBS were removed. NO released into the PBS was quantified using a total nitric oxide assay kit (Immuno-Biological Laboratories Co., Ltd, Gunma, Japan), according to the manufacturer's instruction.

hairless mice [2] = test: Epidermal hyperplasia induced by barrier disruption (acetone) under low humidity; assay type: in vivo, mouse; settings: for epidermal proliferation (number of BrdU-positive cells, DNA synthesis) / epidermal thickness: topical application after acetone treatment under low humidity, compared with acetone treated skin; for epidermal hyperplasia induced by acetone treatment under low environmental humidity: topical application, 1 µM, 48 hours in dry condition
Description: Hairless mice were kept separately in 7.2-liter cages in which the relative humidity was maintained at less than 10% with dry air as described previously(Denda et al, 1998). The temperature was the same in all cases (22-25° C.), and fresh air was circulated 100 times per hour. Animals were kept out of the direct stream of air. During the experiments, the animal's behavior was not restricted. The level of NH3 was always below 1 ppm. Animals were first kept in a dry condition for 48 hours and then the skin on both flanks was treated with acetone-soaked cotton balls, as described previously(Denda et al, 1998). The procedure was terminated when TEWL reached 2.5-3.5 mg per cm^2 per h. Immediately after the barrier disruption, 100 μl of nNOS inhibitor and ODQ aqueous solution (1 μM) was applied on one side of the treated area. Water was applied on the other side. Then the animals were again kept in the dry condition for 48 hours. After the experiments, animals were euthanized with diethylether inhalation and skin samples were taken from the treated areas. One hour before euthanization, 20 μl per g body weight of a 10 mM solution of bromodeoxyuridine (BrdU) was injected intraperitoneally. Untreated control mice were also treated with BrdU at the same time. After fixation with 4% paraformaldehyde, full thickness skin samples were embedded in paraffin, sectioned (4 μm), and processed for hematoxylin and eosin staining. On each section, five areas were selected at random; the thickness of the epidermis was measured with an optical micrometer, and the mean value was calculated. For the assessment of DNA synthesis, the sections were immunostained with anti-BrdU antibodies. On each section, five areas were selected at random from one section; the number of immunostained cells per 1 mm of epidermis was counted and the epidermal thickness was measured with an optical micrometer. The mean value was calculated. Measurements were carried out in an observer-blinded fashion. NO evaluation in hairless mouse epidermis

[3] = test system: Normal human epithelial keratinocytes (NHEK); test: Ca2+ imaging (fura-2) in single cultured keratinocytes; assay type: cell-based
Description: Normal human epithelial keratinocytes (NHEK) were purchased from Kurabo (Osaka, Japan). NHEK were cultured in serum-free keratinocyte growth medium, consisting of Humedia-KB2 (Kurabo, Osaka, Japan) supplemented with bovine pituitary extract (0.4% vol/vol), human recombinant epidermal growth (0.1 μg per mL), insulin (10 μg per mL), and hydrocortisol (0.5 μg per mL). The medium was replaced every 2-3 d. For the electrophysiological experiments, NHEK (passage 1-3 cells) were seeded onto collagen-coated glass coverslips and used within 4 d. Ca^2+ imaging in single keratinocytes
NHEK were grown to approximately 80-100% confluency on collagen-coated cover glass chambers (Nalge Nunc, Naperville, Ill.). Changes in [Ca^2+] in single cells were measured by the fura-2 method as described by Grynkiewicz et al. (1985) with minor modifications(Koizumi et al, 1998). In brief, the culture medium was replaced with a balanced salt solution (BSS) of the following composition (mM): NaCl 150, KCl 5, CaCl21.8, MgCl2 1.2, HEPES 25, NaH2PO4 1.2 and D-glucose 10 (pH 7.4) or calcium-free BSS which had the same composition as the above BSS with 1 mM EGTA and no added CaCl2. Cells were loaded with 5 μM fura-2 acetoxymethylester (fura-2AM, Molecular Probes, Eugene, Oreg.) at room temperature (21-23° C.) in BSS for 45 min, washed with BSS, and incubated for a further 30 min to allow de-esterification of the loaded dye. The cover slip was mounted on an inverted epifluorescence microscope (IX70, TS Olympus, Tokyo, Japan), equipped with a 75 W xenon lamp and band-pass filters of 340 and 380 nm. The image data, recorded by a high-sensivity CCD (charge-coupled-device) camera (ORCA-ER, Hamamatsu Photonics, Hamamatsu, Japan) were evaluated with a Ca^2+ analyzing system (AQUACOSMOS/RATIO, Hamamatsu Photonics). SNAP (300 μM), ODQ (10 μM) and nifedipine (50 μM) were dissolved in the BSS and the cells were exposed to the solution by perfusion. We observed four lots of pooled cells for each treatment. […] Data were represented as the ratio of fluorescence intensities at 340 and 380 nm.

[4] = topical application of 1 μM aqueous solution, 1, 3 and 6 hours after tape stripping, vs water control

SMILES: O=c1onc2n1-c1cc(Br)ccc1OC2 [NS 2028, 4H-8-bromo-1,2,4-oxadiazolo[3,4-dibenz[b][1,4]oxazin-1-one]
- barrier recovery after tape stripping (percent recovery of TEWL) (hairless mice [1]; [4]): accelerated the barrier recovery

SMILES: CCCNC(=N)NCCC[C@H](N)C(=O)O [nNOS inhibitor, N^ω-propyl-L-arginine]
- increase of NO level (release) after tape stripping (skin of hairless mice): blocked
- barrier recovery after tape stripping (percent recovery of TEWL) (hairless mice [1]; [4]): accelerated the barrier repair
- epidermal proliferation (number of BrdU-positive cells, DNA synthesis) (hairless mice [2]): Significant reductions
- epidermal thickness (hairless mice [2]): Significant reductions
- epidermal hyperplasia induced by acetone treatment under low environmental humidity (hairless mice [2]): prevented the epidermal hyperplasia

SMILES: CSC(=N)N [iNOS inhibitor, S-methylisothiourea]
- increase of NO level (release) after tape stripping (skin of hairless mice): did not affect
- barrier recovery after tape stripping (percent recovery of TEWL) (hairless mice [1]; [4]): did not affect the barrier recovery

SMILES: COC(=O)[C@@H](N)CCCNC(=N)N[N+](=O)[O-] [L-NAMA, L-N(G)-nitro-L-arginine methyl ester]
- barrier recovery after tape stripping (percent recovery of TEWL) (hairless mice [1]; [4]): accelerated the barrier repair

SMILES: Nc1c[n+](N2CCOCC2)no1.[Cl-] [SIN, SIN-1 chloride]
- barrier recovery after tape stripping (percent recovery of TEWL) (hairless mice [1]; [4]): delayed the barrier recovery

SMILES: O=c1onc2cnc3ccccc3n12 [ODQ, 1H-[1,2,4]oxadiazolo[4,3-a]quinoxalin-1-one]
- effect on increase of intracellular calcium induced by SNAP ([3]; 300 μM SNAP with 10 μM ODQ or 50 μM nifedipine): blocked
- barrier recovery after tape stripping (percent recovery of TEWL) (hairless mice [1]; [4]): accelerated the barrier recovery
- epidermal proliferation (number of BrdU-positive cells, DNA synthesis) (hairless mice [2]): Significant reductions
- epidermal thickness (hairless mice [2]): Significant reductions
- epidermal hyperplasia induced by acetone treatment under low environmental humidity (hairless mice [2]): prevented the hyperplasia

SMILES: CC(=O)NC(C(=O)O)C(C)(C)SN=O (racemic) [SNAP, S-nitroso-N-acetyl-D,L-penicillamine]
- intracellular calcium concentration (ratio 340 nm/380 nm, fura-2) ([3]; 300 μM SNAP, calcium-containing BSS): increased
- intracellular calcium concentration (ratio 340 nm/380 nm, fura-2) ([3]; SNAP, calcium-free medium): an increase of [Ca^2+] was induced
- barrier recovery after tape stripping (percent recovery of TEWL) (hairless mice [1]; topical application of one millimolar solution of SNAP, vs control): delayed skin barrier recovery
